Experimental data from the supplement of paper PMC11061612.

What was measured:
Assay in all cases: Bliss excess, mean over the matrix (fraction); higher = more synergy
A673 (Ewing's Sarcoma) = test system: A673 (Ewing's Sarcoma)
Summary of the method: (§1)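 Cell lines grown in DMEM/F12 or RPMI with 10% FBS were plated in 1536-well plates and held 24 hours at 37°C, 5% CO2 before 72 hours of exposure to two-drug dose matrices, with DMSO typically at 0.2%. CellTiter-Glo 2.0 luminescence gave viability, which was converted to inhibition. Vehicle wells were set to 0 and blank wells to 1. Combination Emax is the second-highest inhibition in the matrix, and Bliss excess is the observed combination effect minus the expected EA + EB − EA·EB, where EA and EB are the single-agent effects.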

[1] = test system: BE-13 (T-Lymphoblastic Leukemia)
Summary of the method: as §1

[2] = test system: CAL-33 (Oral Cavity Carcinoma)
Summary of the method: as §1

[3] = test system: FTC-133 (Thyroid Gland Carcinoma)
Summary of the method: as §1

GAMG (Glioblastoma) = test system: GAMG (Glioblastoma)
Summary of the method: as §1

[4] = test system: Hs-746T (Gastric Carcinoma)
Summary of the method: as §1

KS-1 (Glioblastoma) = test system: KS-1 (Glioblastoma)
Summary of the method: as §1

[5] = test system: KYAE-1 (Esophageal Adenocarcinoma)
Summary of the method: as §1

[6] = test system: LNZTA3WT4 (Low Grade Glioma)
Summary of the method: as §1

[7] = test system: MHH-CALL-2 (B-Lymphoblastic Leukemia)
Summary of the method: as §1

[8] = test system: NCI-H1568 (Lung Adenocarcinoma)
Summary of the method: as §1

NCI-H2052 (Mesothelioma) = test system: NCI-H2052 (Mesothelioma)
Summary of the method: as §1

NCI-H2722 (Mesothelioma) = test system: NCI-H2722 (Mesothelioma)
Summary of the method: as §1

[9] = test system: NUGC-4 (Gastric Carcinoma)
Summary of the method: as §1

[10] = test system: OE21 (Esophageal Squamous Cell Carcinoma)
Summary of the method: as §1

[11] = test system: OV-56 (Ovarian Carcinoma)
Summary of the method: as §1

[12] = test system: SNU-449 (Hepatocellular Carcinoma)
Summary of the method: as §1

[13] = test system: SW1710 (Bladder Carcinoma)
Summary of the method: as §1

[14] = test system: WSU-NHL (B-Cell Non-Hodgkin's Lymphoma)
Summary of the method: as §1

[15] = test system: YAPC (Pancreatic Carcinoma)
Summary of the method: as §1

SMILES	Bliss excess (A673 (Ewing's Sarcoma))	Bliss excess [1]	Bliss excess [2]	Bliss excess [3]	Bliss excess (GAMG (Glioblastoma))	Bliss excess [4]	Bliss excess (KS-1 (Glioblastoma))	Bliss excess [5]	Bliss excess [6]	Bliss excess [7]	Bliss excess [8]	Bliss excess (NCI-H2052 (Mesothelioma))	Bliss excess (NCI-H2722 (Mesothelioma))	Bliss excess [9]	Bliss excess [10]	Bliss excess [11]	Bliss excess [12]	Bliss excess [13]	Bliss excess [14]	Bliss excess [15]
NC1(C(=O)N[C@@H](CCO)c2ccc(Cl)cc2)CCN(c2ncnc3[nH]ccc23)CC1 [Capivasertib] + Cn1cnc2c(F)c(Nc3ccc(Br)cc3Cl)c(C(=O)NOCCO)cc21 [Selumetinib] (first compound max 10 µM, 7x7, partner max 10 µM)	0.0877	0.0265	0.0926	0.0156	0.0408	0.0736	0.0426	-0.0064	-0.0292	0.156	-0.055	-0.0031	0.0009	0.0363	0.0761	0.01	-0.0113	0.0396	0.0544	0.03
CS(=O)(=O)CCNCc1ccc(-c2ccc3ncnc(Nc4ccc(OCc5cccc(F)c5)c(Cl)c4)c3c2)o1 [Lapatinib] + C[C@@H](Oc1cc(-c2cnn(C3CCNCC3)c2)cnc1N)c1c(Cl)ccc(F)c1Cl [Crizotinib] (first compound max 10 µM, 7x7, partner max 10 µM)	-0.0546	-0.0235	-0.0247	-0.0012	-0.0277	0.0079	-0.0458	-0.0171	-0.0665	0.0219	-0.0174	-0.0676	-0.0713	0.0496	0.0006	0.0056	-0.0453	-0.078	-0.0515	-0.0168
CC(=O)c1c(C)c2cnc(Nc3ccc(N4CCNCC4)cn3)nc2n(C2CCCC2)c1=O [Palbociclib] + CC1(C)CCC(CN2CCN(c3ccc(C(=O)NS(=O)(=O)c4ccc(NCC5CCOCC5)c([N+](=O)[O-])c4)c(Oc4cnc5[nH]ccc5c4)c3)CC2)=C(c2ccc(Cl)cc2)C1 [Venetoclax] (first compound max 10 µM, 7x7, partner max 1 µM)	-0.0426	-0.0182	-0.022	-0.0481	-0.0097	-0.0117	-0.0211	-0.023	-0.0032	-0.032	-0.0506	-0.0432	-0.0485	-0.0246	0.0309	-0.0448	-0.0153	0.0152	-0.0137	-0.0109
CC(=O)c1c(C)c2cnc(Nc3ccc(N4CCNCC4)cn3)nc2n(C2CCCC2)c1=O [Palbociclib] + Cc1c2c(nn1C)CSCc1cc(n(C)n1)CSc1cc(c3ccccc3c1)OCCCc1c(C(=O)O)n(C)c3c-2c(Cl)ccc13 [AZD5991] (first compound max 10 µM, 7x7, partner max 1 µM)	-0.0903	-0.0277	0.016	-0.0515	-0.0142	-0.0293	-0.0556	0.0035	0.0064	-0.0451	-0.0149	-0.0298	-0.0649	-0.0486	-0.0088	-0.0824	-0.0187	-0.0405	-0.0269	-0.0037
CC(=O)c1c(C)c2cnc(Nc3ccc(N4CCNCC4)cn3)nc2n(C2CCCC2)c1=O [Palbociclib] + Cn1cnc2c(F)c(Nc3ccc(Br)cc3Cl)c(C(=O)NOCCO)cc21 [Selumetinib] (first compound max 10 µM, 7x7, partner max 10 µM)	-0.009	-0.0003	0.0345	-0.0403	-0.0072	-0.0475	-0.0012	-0.0125	-0.0459	-0.0407	-0.109	-0.0124	-0.069	-0.0292	0.0877	-0.0587	-0.0006	0.0054	0.107	0.0156
COc1cccc(OCCCN)c1-c1cc(Nc2cnc(C#N)cn2)n[nH]1 [Prexasertib] + CCc1c2c(nc3ccc(O)cc13)-c1cc3c(c(=O)n1C2)COC(=O)[C@]3(O)CC [SN-38] (first compound max 1 µM, 7x7, partner max 0.3 µM)	-0.0105	0.0072	-0.0329	-0.0278	0.0292	-0.0006	-0.0848	0.102	0.0266	0.0227	0.0165	-0.0138	-0.0565	-0.0568	-0.0509	0.009	-0.0091	0.0504	-0.0073	-0.0776
Cn1cnc2c(F)c(Nc3ccc(Br)cc3Cl)c(C(=O)NOCCO)cc21 [Selumetinib] + C=CCn1c(=O)c2cnc(Nc3ccc(N4CCN(C)CC4)cc3)nc2n1-c1cccc(C(C)(C)O)n1 [AZD1775] (first compound max 10 µM, partner max 1 µM)	-0.0806	-0.0423	-0.0194	-0.0465	0.0063	-0.0275	-0.0037	-0.0019	-0.0443	-0.0087	-0.0331	-0.0747	-0.046	-0.0286	-0.0399	-0.0766	-0.0413	-0.0409	-0.0066	0.016
Cn1cnc2c(F)c(Nc3ccc(Br)cc3Cl)c(C(=O)NOCCO)cc21 [Selumetinib] + CC(C)n1c(=O)n(C)c2cnc3cc(F)c(-c4ccc(OCCCN5CCCCC5)nc4)cc3c21 [AZD1390] (first compound max 10 µM, 7x7, partner max 0.3 µM)	-0.0481	-0.0283	0.0649	-0.034	-0.0242	-0.0257	-0.0384	-0.026	-0.0324	0.0042	-0.0508	-0.0242	-0.0678	-0.0045	0.014	-0.0526	-0.0464	-0.059	-0.0059	-0.033
Cn1cnc2c(F)c(Nc3ccc(Br)cc3Cl)c(C(=O)NOCCO)cc21 [Selumetinib] + CCN(CCO)CCCOc1ccc2c(Nc3cc(CC(=O)Nc4cccc(F)c4)[nH]n3)ncnc2c1 [AZD2811] (first compound max 10 µM, 7x7, partner max 1 µM)	-0.0233	-0.0213	-0.0215	-0.03	-0.0213	-0.0051	-0.0324	-0.0212	-0.0094	0.306	-0.0612	-0.0388	-0.0834	-0.0067	0.0238	-0.0677	-0.0582	-0.0548	-0.0209	-0.0654
Cn1cnc2c(F)c(Nc3ccc(Br)cc3Cl)c(C(=O)NOCCO)cc21 [Selumetinib] + C[C@@H]1COCCN1C2=NC(=NC(=C2)C3(CC3)[S@](=N)(=O)C)C4=C5C=CNC5=NC=C4 [AZD6738] (first compound max 10 µM, 7x7, partner max 10 µM)	-0.0537	-0.0181	0.0115	-0.0828	-0.0398	0.0382	-0.0315	-0.0243	-0.0661	0.0085	-0.0261	0.0119	-0.0455	0.0069	0.0134	-0.0239	-0.0403	-0.0481	-0.0042	-0.0019
CC(=O)Nc1cccc(-n2c(=O)n(C3CC3)c(=O)c3c(Nc4ccc(I)cc4F)n(C)c(=O)c(C)c32)c1 [Trametinib] + Cc1nc(-c2cn3c(n2)-c2ccc(-c4cnn(C(C)(C)C(N)=O)c4)cc2OCC3)n(C(C)C)n1 [Taselisib] (first compound max 1 µM, 7x7, partner max 10 µM)	0.229	-0.0123	0.104	-0.046	0.0415	0.0172	0.015	0.0462	0.0829	0.188	0.131	-0.0231	-0.0078	0.0347	0.147	-0.0025	-0.0432	0.016	0.0079	0.246
CC1(C)CCC(CN2CCN(c3ccc(C(=O)NS(=O)(=O)c4ccc(NCC5CCOCC5)c([N+](=O)[O-])c4)c(Oc4cnc5[nH]ccc5c4)c3)CC2)=C(c2ccc(Cl)cc2)C1 [Venetoclax] + C1CN(CCC1(C(=O)N[C@@H](CCO)C2=CC=C(C=C2)Cl)N)C3=NC=NC4=C3C=CN4 [Capivasertib] (first compound max 1 µM, 7x7, partner max 3 µM)	-0.0551	-0.0684	0.0084	-0.0473	-0.0185	-0.0705	-0.0161	-0.0582	-0.0297	-0.0702	-0.0306	-0.0269	-0.0671	-0.0673	-0.009	-0.0323	-0.075	-0.0896	-0.0282	-0.0461
CC1(C)CCC(CN2CCN(c3ccc(C(=O)NS(=O)(=O)c4ccc(NCC5CCOCC5)c([N+](=O)[O-])c4)c(Oc4cnc5[nH]ccc5c4)c3)CC2)=C(c2ccc(Cl)cc2)C1 [Venetoclax] + C=CCn1c(=O)c2cnc(Nc3ccc(N4CCN(C)CC4)cc3)nc2n1-c1cccc(C(C)(C)O)n1 [AZD1775] (first compound max 1 µM, partner max 1 µM)	0.112	0.0227	-0.0631	0.0065	0.0112	-0.115	0.0134	-0.033	0.0509	-0.0382	-0.0385	-0.0145	-0.0631	-0.0733	0.0095	-0.0114	-0.0353	-0.0519	-0.0036	-0.0356
CC1(C)CCC(CN2CCN(c3ccc(C(=O)NS(=O)(=O)c4ccc(NCC5CCOCC5)c([N+](=O)[O-])c4)c(Oc4cnc5[nH]ccc5c4)c3)CC2)=C(c2ccc(Cl)cc2)C1 [Venetoclax] + CCN(CCO)CCCOc1ccc2c(Nc3cc(CC(=O)Nc4cccc(F)c4)[nH]n3)ncnc2c1 [AZD2811] (first compound max 1 µM, 7x7, partner max 1 µM)	0.0295	-0.0468	-0.0261	0.0192	-0.0368	-0.0383	-0.0516	-0.0002	0.0218	-0.01	-0.0339	-0.0112	-0.0269	-0.0481	0.0005	0.0214	-0.0642	0.0032	-0.0879	-0.0103
